In paper PMC10635799, “Analogs of FTY720 inhibit TRPM7 but not S1PRs and exert multimodal anti-inflammatory effects” (The Journal of General Physiology, 2023):

Key:
RAW 264.7 macrophages = experiment: LPS-induced inflammatory gene expression (qRT-PCR) in RAW 264.7 macrophages; type: cell-based; details: LPS 1 µg/ml for 3 h
Protocol: RAW 264.7 macrophages or BMDMs were seeded at a density of 250,000 cells per well into a 12-well tissue culture plate in 1 ml of media and left to incubate overnight. The indicated drug or vehicle control was added to each well, and the plate was agitated and left to incubate for 10 min. The cells were then treated with LPS (1 μg/ml) or an equivalent volume of PBS, agitated, and left to incubate for 3 h. Cells were washed with PBS and then RNA isolation was performed using RNeasy Plus Micro Kit (74134; Qiagen). cDNA was produced using GoScript Reverse Transcriptase ([…]; Promega) and a quantitative PCR was performed using SensiFast SYBR (98020; Bioline) and Bio-Rad CFX Connect thermocycler. Each datum represents an individual, biological replicate that is the mean of duplicate technical replicates. Fold-changes are all reported relative to untreated controls for each experiment and were calculated using the ΔΔCt method, with β2-microglobulin used as the housekeeping gene for each sample. The experiment was performed similarly with BV-2 microglia and alveolar macrophages, except that cells were plated at a density of 100,000 cells per well into a 24-well tissue culture plate with 1 ml of media per well.

S1P receptors = details: ref Brinkmann et al., 2002; Zhu et al., 2007; cited from earlier work

## CCCCCCCCc1ccc([C@@H]2CC[C@@](N)(CO)C2)cc1 [VPC01091.4, ((1S,3R)-1-amino-3-(4-octylphenyl)cyclopentyl)methanol]
RAW 264.7 macrophages; 5 µM pretreatment
  LPS-stimulated IL-1β gene expression: almost completely abrogated
RAW 264.7 macrophages; 10 µM pretreatment
  LPS-stimulated IL-1β gene expression: almost completely abrogated
S1P receptors
  Activity at S1P receptors: not active
